Data: patent US20220356174A1, “PYRIDIN-2-ONE COMPOUNDS USEFUL AS SMARCA2 ANTAGONISTS” (Epizyme, Inc., priority 2018, published 2022)
Like-named read-outs stand apart in the source and are kept apart here.

Experiments:
[1] = target: T1, FL-SMARCA2 (full-length human SMARCA2 isoform 1) (Homo sapiens, UniProt P51531); test: SMARCA2 ATPase activity assay (ADP-Glo, chicken mononucleosome substrate); format: biochemical; conditions: ATP 250 uM
T1 construct: FLAG tag (YKDDDDK) (C); made in house; host or cells: Sf21 insect cells (baculovirus, pFastBacI)
T1 sequence (P51531 with tags, fused parts or gaps): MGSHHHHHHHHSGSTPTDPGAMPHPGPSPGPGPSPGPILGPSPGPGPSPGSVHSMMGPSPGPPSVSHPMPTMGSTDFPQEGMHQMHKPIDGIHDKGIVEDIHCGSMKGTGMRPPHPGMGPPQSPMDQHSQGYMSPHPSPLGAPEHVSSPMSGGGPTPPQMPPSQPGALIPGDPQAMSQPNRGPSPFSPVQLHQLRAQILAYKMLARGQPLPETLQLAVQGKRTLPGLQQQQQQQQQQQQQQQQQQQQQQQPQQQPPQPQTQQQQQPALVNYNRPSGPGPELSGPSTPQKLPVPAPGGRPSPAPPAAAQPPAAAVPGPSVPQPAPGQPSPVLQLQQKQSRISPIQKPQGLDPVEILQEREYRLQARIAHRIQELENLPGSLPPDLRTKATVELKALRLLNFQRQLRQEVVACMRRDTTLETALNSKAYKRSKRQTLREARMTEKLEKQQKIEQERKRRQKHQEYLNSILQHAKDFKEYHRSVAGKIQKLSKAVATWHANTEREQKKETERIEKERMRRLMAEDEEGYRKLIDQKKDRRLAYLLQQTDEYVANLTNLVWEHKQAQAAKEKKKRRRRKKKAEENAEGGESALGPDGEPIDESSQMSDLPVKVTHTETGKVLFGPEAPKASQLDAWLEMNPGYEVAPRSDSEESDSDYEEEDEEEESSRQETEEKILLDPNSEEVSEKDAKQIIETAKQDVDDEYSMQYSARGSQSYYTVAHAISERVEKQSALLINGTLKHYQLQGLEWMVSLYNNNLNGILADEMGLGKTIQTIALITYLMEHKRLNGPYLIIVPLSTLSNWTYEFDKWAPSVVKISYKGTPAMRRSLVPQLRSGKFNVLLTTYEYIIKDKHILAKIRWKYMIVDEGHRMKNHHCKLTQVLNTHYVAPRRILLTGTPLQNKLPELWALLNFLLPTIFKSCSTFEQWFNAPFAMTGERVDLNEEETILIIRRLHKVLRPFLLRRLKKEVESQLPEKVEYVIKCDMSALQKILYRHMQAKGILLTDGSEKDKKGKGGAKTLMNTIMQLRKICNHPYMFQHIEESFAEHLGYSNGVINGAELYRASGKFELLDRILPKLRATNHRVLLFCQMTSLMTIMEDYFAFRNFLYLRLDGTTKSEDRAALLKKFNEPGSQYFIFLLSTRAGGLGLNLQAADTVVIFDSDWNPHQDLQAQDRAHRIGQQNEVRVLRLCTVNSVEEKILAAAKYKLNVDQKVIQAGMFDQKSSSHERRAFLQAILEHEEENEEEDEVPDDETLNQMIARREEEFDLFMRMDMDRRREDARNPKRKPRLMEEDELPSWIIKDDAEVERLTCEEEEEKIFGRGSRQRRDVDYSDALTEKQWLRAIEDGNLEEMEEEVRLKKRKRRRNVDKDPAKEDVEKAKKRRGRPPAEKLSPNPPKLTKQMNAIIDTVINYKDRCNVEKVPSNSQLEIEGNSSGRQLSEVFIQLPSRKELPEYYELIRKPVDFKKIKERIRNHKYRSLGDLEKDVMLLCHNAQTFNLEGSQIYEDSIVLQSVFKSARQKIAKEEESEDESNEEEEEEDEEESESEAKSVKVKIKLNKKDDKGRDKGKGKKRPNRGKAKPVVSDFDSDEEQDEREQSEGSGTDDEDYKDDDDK

[2] = target: FL-SMARCA4 (Homo sapiens, UniProt P51532); test: SMARCA4 ATPase activity assay (ADP-Glo, chicken mononucleosome substrate)
FL-SMARCA4, sequence (P51532 whole entry): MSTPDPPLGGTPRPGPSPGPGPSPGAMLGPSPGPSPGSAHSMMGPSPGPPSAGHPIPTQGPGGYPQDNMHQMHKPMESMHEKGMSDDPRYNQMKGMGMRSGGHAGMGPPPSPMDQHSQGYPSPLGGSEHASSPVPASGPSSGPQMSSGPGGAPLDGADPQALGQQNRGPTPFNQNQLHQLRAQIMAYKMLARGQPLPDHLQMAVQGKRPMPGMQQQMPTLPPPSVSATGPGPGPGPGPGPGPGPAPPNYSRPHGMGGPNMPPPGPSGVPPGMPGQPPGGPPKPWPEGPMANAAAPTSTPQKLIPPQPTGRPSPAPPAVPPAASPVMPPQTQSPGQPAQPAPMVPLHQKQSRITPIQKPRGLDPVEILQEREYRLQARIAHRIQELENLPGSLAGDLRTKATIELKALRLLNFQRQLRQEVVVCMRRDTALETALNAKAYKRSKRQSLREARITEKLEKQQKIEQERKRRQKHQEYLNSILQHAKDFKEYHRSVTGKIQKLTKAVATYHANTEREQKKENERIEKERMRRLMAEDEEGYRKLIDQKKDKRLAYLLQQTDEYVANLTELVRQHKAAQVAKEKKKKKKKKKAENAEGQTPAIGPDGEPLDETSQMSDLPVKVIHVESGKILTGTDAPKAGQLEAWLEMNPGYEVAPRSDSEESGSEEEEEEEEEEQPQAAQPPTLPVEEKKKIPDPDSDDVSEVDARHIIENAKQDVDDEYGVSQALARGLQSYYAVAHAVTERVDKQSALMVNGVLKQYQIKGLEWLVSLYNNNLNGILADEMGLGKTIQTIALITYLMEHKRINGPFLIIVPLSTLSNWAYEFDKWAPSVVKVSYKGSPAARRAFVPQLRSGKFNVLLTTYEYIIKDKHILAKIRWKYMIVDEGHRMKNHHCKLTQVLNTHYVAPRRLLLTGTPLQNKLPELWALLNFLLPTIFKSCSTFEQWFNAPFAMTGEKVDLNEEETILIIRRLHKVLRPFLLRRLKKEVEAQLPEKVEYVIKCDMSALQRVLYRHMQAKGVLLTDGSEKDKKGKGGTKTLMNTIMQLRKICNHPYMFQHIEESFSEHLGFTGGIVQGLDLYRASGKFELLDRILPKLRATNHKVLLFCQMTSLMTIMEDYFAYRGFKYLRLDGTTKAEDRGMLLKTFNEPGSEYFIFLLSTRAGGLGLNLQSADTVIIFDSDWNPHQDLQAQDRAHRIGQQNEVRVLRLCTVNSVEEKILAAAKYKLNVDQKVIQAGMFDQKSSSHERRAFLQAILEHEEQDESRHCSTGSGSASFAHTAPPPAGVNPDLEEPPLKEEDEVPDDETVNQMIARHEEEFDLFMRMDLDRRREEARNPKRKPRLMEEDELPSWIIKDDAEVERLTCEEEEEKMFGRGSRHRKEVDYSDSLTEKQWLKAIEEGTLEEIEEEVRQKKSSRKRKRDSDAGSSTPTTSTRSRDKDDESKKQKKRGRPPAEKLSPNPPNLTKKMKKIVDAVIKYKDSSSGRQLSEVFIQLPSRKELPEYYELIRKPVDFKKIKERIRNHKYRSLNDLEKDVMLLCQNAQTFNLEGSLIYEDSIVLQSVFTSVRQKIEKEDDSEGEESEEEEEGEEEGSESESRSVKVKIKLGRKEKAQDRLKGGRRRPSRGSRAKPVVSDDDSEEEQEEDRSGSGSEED

[3] = Table 3a.1, SMARCA2 5 nM, mononucleosome 10 nM
[4] = FL-SMARCA4 IC50, Table 3a.2, SMARCA4 5 nM, ATP 250 uM, mononucleosome 10 nM
[5] = Table 3.1, ATPase assay, enzyme 5 nM, chicken mononucleosome 10 nM, 30 min preincubation
[6] = FL-SMARCA4 IC50, Table 3.2, ATPase assay, enzyme 5 nM, ATP 250 uM, chicken mononucleosome 10 nM, 30 min preincubation
[7] = Table 3c.1, ATPase assay, enzyme 5 nM, chicken mononucleosome 10 nM, 30 min preincubation
[8] = FL-SMARCA4 IC>50, Table 3c.2, ATPase assay, enzyme 5 nM, ATP 250 uM, chicken mononucleosome 10 nM, 30 min preincubation

| Structure (SMILES) | IC50 [1, 5] | IC50 [2, 6] | also measured |
| --- | --- | --- | --- |
| COc1ccc2cc(C(=O)Nc3cc(F)c(=O)n(CCF)c3)[nH]c2c1 [Compound 65a] |  |  | IC50 [1, 3]: 4.91 µM; IC50 [2, 4]: 27 µM |
| CCn1cc(NC(=O)c2cc(Cl)c(Cl)n2-c2ccccc2)ccc1=O [Compound 66] | > 50 µM | > 50 µM |  |
| O=C(Nc1cc(F)c(=O)n(CCF)c1)c1cc2cncnc2[nH]1 [Compound 66a] |  |  | IC50 [1, 3]: 32.1 µM; IC50 [2, 4]: > 50 µM |
| CCCn1cc(NC(=O)c2cc(Cl)c(Cl)n2C)ccc1=O [Compound 68] | 8.55 µM | > 50 µM |  |
| O=C(Nc1cc(F)c(=O)n(CCF)c1)c1ccc2c(c1)CNC2=O [Compound 68a] |  |  | IC50 [1, 3]: > 50 µM; IC50 [2, 4]: > 50 µM |
| CCn1cc(NC(=O)c2cnc(Cl)s2)ccc1=O [Compound 69] | 2.52 µM | 11.7 µM |  |
| O=C(Nc1cc(F)c(=O)n(CC(F)F)c1)c1cnc(C(F)(F)F)c(F)c1 [Compound 69a] |  |  | IC50 [1, 3]: 1.53 µM; IC50 [2, 4]: 8.48 µM |
| O=C(Nc1cc(F)c(=O)n(CC(F)F)c1)c1cc(C#CC2CN(CC(F)(F)F)C2)c(Cl)s1 [Compound 69c] |  |  | IC50 [1, 7]: 1 µM; IC50 [2, 8]: 3.77 µM |
| CCn1cc(NC(=O)c2cc(Cl)n(C)c2)ccc1=O [Compound 70] | 16.7 µM | > 50 µM |  |
| CNCCn1cc(NC(=O)c2cc(Cl)c(Cl)n2C)ccc1=O [Compound 71] | > 50 µM | > 50 µM |  |
| CCn1cc(N(C)C(=O)c2cc(Cl)c(Cl)n2C)ccc1=O [Compound 71a] |  |  | IC50 [1, 3]: 2.72 µM; IC50 [2, 4]: 39.6 µM |
| CCn1cc(NC(=O)c2nnc(Cl)s2)ccc1=O [Compound 72] | 33.2 µM | > 50 µM |  |
| CCn1cc(NC(=O)c2cc(Cl)c(C)s2)ccc1=O [Compound 73] | 11.5 µM | 35.6 µM |  |
| CCn1cc(NC(=O)c2cc(OC)c(Cl)s2)ccc1=O [Compound 74] | 17.2 µM | 31.5 µM |  |
| O=C(Nc1ccc(=O)n(CC(F)(F)F)c1)c1cc(Cl)c(Cl)s1 [Compound 75] | 0.437 µM | 1.52 µM |  |
| CC(C)Cn1cc(NC(=O)c2cc(Cl)c(Cl)s2)ccc1=O [Compound 76] | > 50 µM | > 50 µM |  |
| O=C(Nc1cc(F)c(=O)n(CC(F)F)c1)c1nsc(Cl)n1 [Compound 76c] |  |  | IC50 [1, 7]: 24.1 µM; IC50 [2, 8]: > 50 µM |
| CCn1cc(C(=O)Nc2ccc(Br)s2)ccc1=O [Compound 77] | > 50 µM | > 50 µM |  |
| O=C(Nc1cc(F)c(=O)n(CC(F)F)c1)c1cc(C2CN(c3ccncc3)C2)c(Cl)s1 [Compound 77c] |  |  | IC50 [1, 7]: 6.56 µM; IC50 [2, 8]: 30.5 µM |
| CCn1cc(NC(=O)c2nnc(C)s2)ccc1=O [Compound 78] | > 50 µM | > 50 µM |  |
| CCn1cc(C(=O)Nc2cc(Cl)c(Cl)s2)ccc1=O [Compound 79] | > 50 µM | > 50 µM |  |
| O=C(Nc1ccc(=O)n(CC(F)F)c1)c1cc(Cl)c(Cl)s1 [Compound 81] | 0.223 µM | 0.723 µM |  |
| O=C(Nc1ccc(=O)n(CC2CC2)c1)c1cc(Cl)c(Cl)s1 [Compound 82] | 14.8 µM | 28.9 µM |  |
| O=C(Nc1ccc(=O)n(CCO)c1)c1cc(Cl)c(Cl)s1 [Compound 83] | 20.8 µM | > 50 µM |  |
| CCn1cc(NC(=O)c2cc(Cl)c(Cl)s2)cc(Cl)c1=O [Compound 84] | 0.197 µM | 1.12 µM |  |
| O=C(Nc1cc(F)c(=O)n(CC(F)F)c1)c1cc2cc(-c3ccncc3)ccc2s1 [Compound 84c] |  |  | IC50 [1, 7]: 1.85 µM; IC50 [2, 8]: 28.9 µM |
| O=C(Nc1ccc(=O)n(CC(F)(F)F)c1)c1cc(Cl)c(Cl)n1CCF [Compound 85] | 12 µM | 34.7 µM |  |

| Structure (SMILES) | IC50 [1, 5] | IC50 [2, 6] | also measured |
| --- | --- | --- | --- |
| CCn1cc(NC(=O)c2cc(Cl)c(C#N)s2)ccc1=O [Compound 86] | 0.365 µM | 0.669 µM |  |
| COCCn1cc(NC(=O)c2cc(Cl)c(Cl)s2)ccc1=O [Compound 87] | > 50 µM | > 50 µM |  |
| CCn1cc(NC(=O)c2ccc(CN(C)C)s2)ccc1=O [Compound 88] | > 50 µM | > 50 µM |  |
| Cn1ccnc1-c1cc(NC(=O)c2cc(Cl)c(C(F)(F)F)s2)cn(CC(F)F)c1=O [Compound 88c] |  |  | IC50 [1, 7]: > 50 µM; IC50 [2, 8]: > 50 µM |
| CN(C)CCn1cc(NC(=O)c2cc(Cl)c(Cl)n2C)ccc1=O [Compound 89] | > 50 µM | > 50 µM |  |
| CCn1cc(NC(=O)c2nncs2)ccc1=O [Compound 90] | > 50 µM | > 50 µM |  |
| CCc1cc(C(=O)Nc2ccc(=O)n(CC)c2)sc1Cl [Compound 91] | > 50 µM | > 50 µM |  |
| Cn1cnc(-c2cc(NC(=O)c3cc(Cl)c(C(F)(F)F)s3)cn(CC(F)F)c2=O)c1 [Compound 91c] |  |  | IC50 [1, 7]: > 50 µM; IC50 [2, 8]: > 50 µM |
| CCn1cc(NC(=O)c2cnn(C)c2)ccc1=O [Compound 92] | > 50 µM | > 50 µM |  |
| CCn1cc(NC(=O)c2ccn(C)n2)ccc1=O [Compound 93] | > 50 µM | > 50 µM |  |
| N#Cc1sc(C(=O)Nc2cc(F)c(=O)n(CC(F)F)c2)cc1C#CC1COC1 [Compound 93c] |  |  | IC50 [1, 7]: > 50 µM; IC50 [2, 8]: > 50 µM |
| CCn1cc(NC(=O)c2cc(Cl)n[nH]2)ccc1=O [Compound 94] | 3.15 µM | 11.5 µM |  |
| O=C(Nc1cc(F)c(=O)n(CC(F)F)c1)c1cc(C#CC2COC2)c(C2CC2)s1 [Compound 94c] |  |  | IC50 [1, 7]: > 50 µM; IC50 [2, 8]: > 50 µM |
| N#Cc1cc(C(=O)Nc2cc(F)c(=O)n(CC(F)F)c2)sc1C1(F)CC1 [Compound 94d] |  |  | IC50 ([1]; Table 3d.1, ATPase assay, enzyme 5 nM, chicken mononucleosome 10 nM, 30 min preincubation, read-out: FL-SMARCA2 IC>50): 1.77 µM; IC50 ([2]; FL-SMARCA4 IC50): 17.9 µM |
| O=C(Nc1cc(F)c(=O)n(CC(F)(F)CO)c1)c1cc(Cl)c(Cl)s1 [Compound 100c] |  |  | IC50 [1, 7]: 6.81 µM; IC50 [2, 8]: 27.6 µM |
| O=C(Nc1cc(-c2cnco2)c(=O)n(CC(F)F)c1)c1cc(Cl)c(C(F)(F)F)s1 [Compound 101c] |  |  | IC50 [1, 7]: > 50 µM; IC50 [2, 8]: > 50 µM |
| O=C(Nc1cc(-c2ncco2)c(=O)n(CC(F)F)c1)c1cc(Cl)c(C(F)(F)F)s1 [Compound 102c] |  |  | IC50 [1, 7]: > 50 µM; IC50 [2, 8]: > 50 µM |
| Cn1ccc(-c2cc(NC(=O)c3cc(Cl)c(C(F)(F)F)s3)cn(CC(F)F)c2=O)n1 [Compound 103c] |  |  | IC50 [1, 7]: 31.3 µM; IC50 [2, 8]: 26 µM |
| O=C(Nc1cc(-c2c[nH]cn2)c(=O)n(CC(F)F)c1)c1cc(Cl)c(C(F)(F)F)s1 [Compound 104c] |  |  | IC50 [1, 7]: 22.4 µM; IC50 [2, 8]: 29.6 µM |
| O=C1CC(C#Cc2cc(C(=O)Nc3cc(F)c(=O)n(CC(F)F)c3)sc2Cl)CCN1 (stereo not drawn) [Compound 105c] |  |  | IC50 [1, 7]: 0.0407 µM; IC50 [2, 8]: 0.172 µM |
| O=C(Nc1cc(F)c(=O)n(CC(F)F)c1)c1cc(C#Cc2ccncc2)c(F)s1 [Compound 106c] |  |  | IC50 [1, 7]: 0.028 µM; IC50 [2, 8]: 0.0533 µM |
| COc1nc(C#Cc2cc(C(=O)Nc3cc(F)c(=O)n(CC(F)F)c3)sc2Cl)cs1 [Compound 107c] |  |  | IC50 [1, 7]: 0.0508 µM; IC50 [2, 8]: 0.142 µM |
| O=C(Nc1cc(F)c(=O)n(CC(F)F)c1)c1cc(C#CC2COC2)c(F)s1 [Compound 108c] |  |  | IC50 [1, 7]: 0.0818 µM; IC50 [2, 8]: 0.2 µM |
| O=C(Nc1cc(F)c(=O)n(CC(F)F)c1)c1cc(F)c(F)s1 [Compound 109c] |  |  | IC50 [1, 7]: 0.0625 µM; IC50 [2, 8]: 0.159 µM |
| O=C(Nc1cc(-c2cn[nH]c2)c(=O)n(CC(F)F)c1)c1cc(Cl)c(C(F)(F)F)s1 [Compound 110c] |  |  | IC50 [1, 7]: > 50 µM; IC50 [2, 8]: > 50 µM |
| O=C(Nc1cc(F)c(=O)n(CC(F)F)c1)c1cc(C#Cc2ccncc2)n[nH]1 [Compound 112c] |  |  | IC50 [1, 7]: > 50 µM; IC50 [2, 8]: > 50 µM |

Second part, led by results:

| IC50 [1, 5] | IC50 [2, 6] | Structure (SMILES) | also measured |
| --- | --- | --- | --- |
| > 50 µM | > 50 µM | CCc1sc(C(=O)Nc2ccc(=O)n(CC)c2)cc1Cl [Compound 95] |  |
| > 50 µM | > 50 µM | CCn1cc(NC(=O)c2cc(Cl)n(C)c2Cl)ccc1=O [Compound 96] |  |
| > 50 µM | > 50 µM | CCn1cc(NC(=O)c2cc(Cl)[nH]c2Cl)ccc1=O [Compound 97] |  |
| > 50 µM | > 50 µM | CCn1cc(NC(=O)c2cc(CN(C)C)cs2)ccc1=O [Compound 98] |  |
| 4.12 µM | 18.6 µM | O=C(Nc1cc(Cl)c(=O)n(CC(F)(F)F)c1)c1cc(Cl)c(Cl)s1 [Compound 102] |  |
| 0.356 µM | 0.531 µM | CCn1cc(NC(=O)c2cnc(Cl)s2)cc(Cl)c1=O [Compound 103] |  |
| 0.192 µM | 0.229 µM | O=C(Nc1cc(Cl)c(=O)n(CC(F)(F)F)c1)c1cnc(Cl)s1 [Compound 104] |  |
| 27.8 µM | > 50 µM | CCn1cc(NC(=O)c2cc(Cl)c(Cl)s2)cc(C)c1=O [Compound 105] |  |
| 0.417 µM | 0.838 µM | CCn1cc(NC(=O)c2cc(C#N)c(Cl)s2)ccc1=O [Compound 106] |  |
| 36.7 µM | > 50 µM | CCn1cc(NC(=O)c2cc(Cl)ns2)ccc1=O [Compound 107] |  |
| > 50 µM | > 50 µM | CCn1cc(NC(=O)c2cn(C)c(Cl)n2)ccc1=O [Compound 108] |  |
| 0.173 µM | 0.559 µM | CCn1cc(NC(=O)c2cc(Cl)c(Cl)s2)cc(F)c1=O [Compound 109] |  |
| > 50 µM | > 50 µM | CCn1cc(NC(=O)c2cc(Cl)c(Cl)s2)cc(OC)c1=O [Compound 110] |  |
| > 50 µM | > 50 µM | CCn1cc(NC(=O)c2cc(Cl)c(Cl)s2)cc(C(C)C)c1=O [Compound 111] |  |
| > 50 µM | > 50 µM | CCCc1cc(NC(=O)c2cc(Cl)c(Cl)s2)cn(CC)c1=O [Compound 112] |  |
| 14.1 µM | 16.6 µM | CCn1cc(NC(=O)c2cc(Cl)c(Cl)s2)cc(NCCOC)c1=O [Compound 113] |  |
